Test results from patent US5084082A, “Soybean plants with dominant selectable trait for herbicide resistance” (priority 1990, dated 1992).
Structures can show the parent of a compound that is named as a salt.

How the values were obtained:
Type in all cases: in vivo, soybean
[1] = system: WM82 (Williams); assay: Field use rate test (Table VII-B)
[2] = system: mutant line W23; assay: Test B postemergence cross resistance test; conditions: Glycine max, post-emergence; for percent soybean injury at 16 g/ha: W23, 16 g/ha postemergence; for percent soybean injury at 64 g/ha: W23, 64 g/ha postemergence
From the text: (§1) In the second postemergence test, six true-breeding resistant mutant lines (W4, W17, W19, W20, W23, and W28) were compared to Williams 82 for cross resistance to a broad range of ALS inhibitors including eight sulfonylureas and three imidazolinones. Two seeds were planted in each 10 cm pot and allowed to grow to the second trifoliolate stage. Pots were not thinned back if both plants were at the proper stage. For each of 11 herbicides, two rates (Table VII) were selected based on previous data: the low rate was expected to cause significant injury (but not death) to Williams 82 and the high rate was expected to severely injure or kill Williams 82. All but a few line x rate treatments were replicated twice.
(§2) In both postemergence tests, plants were returned to the greenhouse after treatment and provided with ample light, moisture, and nutrients to support healthy plant growth. Two to three ratings per pot were recorded over a three-week period and averaged to obtain a single value for each pot For each herbicide, analysis of variance on injury ratings was performed separately. Fisher's least significant difference (LSD) was used to determine the significance of line mean differences at each herbicide rate using the 95% level of confidence. […]

[3] = system: mutant line W4; assay: Test B postemergence cross resistance test; conditions: Glycine max, post-emergence; for % crop injury at 16 g/ha: W4, 16 g/ha postemergence; for % crop injury at 64 g/ha: W4, 64 g/ha postemergence
From the text: as §1, §2

[4] = system: mutant line W28; assay: Test B postemergence cross resistance test; conditions: Glycine max, post-emergence; for mean % injury to soybean at 16 g/ha: W28, 16 g/ha postemergence; for mean % injury to soybean at 64 g/ha: W28, 64 g/ha postemergence
From the text: as §1, §2

[5] = system: mutant line W19; assay: Test B postemergence cross resistance test; conditions: Glycine max, post-emergence; for percent soybean crop injury at 16 g/ha: W19, 16 g/ha postemergence; for percent soybean crop injury at 64 g/ha: W19, 64 g/ha postemergence
From the text: as §1, §2

[6] = system: mutant line W17; assay: Test B postemergence cross resistance test; conditions: Glycine max, post-emergence; for soybean crop injury (%) at 16 g/ha: W17, 16 g/ha postemergence; for soybean crop injury (%) at 64 g/ha: W17, 64 g/ha postemergence
From the text: as §1, §2

[7] = system: Williams 82; assay: Test B postemergence cross resistance test; conditions: Glycine max, post-emergence; for soybean crop injury at 16 g/ha: Wm 82, 16 g/ha postemergence; for soybean crop injury at 64 g/ha: Wm 82, 64 g/ha postemergence
From the text: as §1, §2

[8] = system: W4-4; assay: Field use rate test (Table VII-B)
[9] = system: mutant W20; assay: Postemergence herbicide spray test of W4-4 (Table VII-A); conditions: two weeks after treatment
Description: (§3) To investigate this hypothesis, a postemergence herbicide spray test was conducted to compare the reaction of W4-4 to both W20 and wild-type Williams. The applicant was particularly interested in the resistance of W4-4 to herbicide treatments that were injurious to both Williams and W20 in a previous test (Table VII). […] Twenty-four plants each of W4-4, W20, and Williams were planted in separate 10 cm pots and allowed to grow to the second trifoliolate stage. Each pot constituted a single experimental unit receiving a single herbicide treatment. Herbicide treatments (Table VIIA) were applied as described for the first postemergence test and were replicated twice. Control plants were sprayed with the spray carrier solution only (water with 0.25% X77 surfactant). At two weeks after treatment, each plant was rated for % herbicide injury as described in Table VIII. Analysis of variance on injury ratings was performed separately for each herbicide to calculate treatment means and standard errors. Fisher's least significant difference (LSD) was used to determine the significance of line means differences at each herbicide rate using the 95% level of confidence. […]

[10] = system: Mutant W4-4; assay: as above; conditions: two weeks after treatment
Description: as §3

[11] = system: Williams 82; assay: as above; conditions: two weeks after treatment
Description: as §3

[12] = system: mutant line W20; assay: Test B postemergence cross resistance test; conditions: Glycine max, post-emergence; for percent crop injury at 16 g/ha: W20, 16 g/ha postemergence; for percent crop injury at 64 g/ha: W20, 64 g/ha postemergence
From the text: as §1
In both postemergence tests, plants were returned to the greenhouse after treatment and provided with ample light, moisture, and nutrients to support healthy plant growth. Two to three ratings per pot were recorded over a three-week period and averaged to obtain a single value for each pot For each herbicide, analysis of variance on injury ratings was performed separately. Fisher's least significant difference (LSD) was used to determine the significance of line mean differences at each herbicide rate using the 95% level of confidence.

[13] = system: W20; assay: Field use rate test (Table VII-B)
[14] = system: mutant W19; assay: Test A postemergence herbicide spray, greenhouse pots
From the text: (§4) In the first post-emergence test, two true-breeding resistant mutant lines, W19 and W20, were compared to previously isolated tolerant mutants and wild-type Williams 82. Eighteen pots (20 cm diameter) of each soybean line (2 seeds per pot) were planted using a standard sterile potting mix. When the seedlings reached the second trifoliolate stage, plants were thinned back to one plant per pot. Each pot was then sprayed with a specific herbicide treatment using a conveyor belt spray apparatus to emulate field application. The nine different herbicide treatments included one rate (8 g/ha) of Compound 1 and two rates (8 and 32 g/ha) each of four other sulfonylurea herbicides (Compounds 2,3,7 and 8) (see Table VI) using a factorial treatment design with 2 replications.
as §2

[15] = system: mutant W20; assay: as above
From the text: as §4, §2

[16] = system: Mutant 1-184A; assay: as above
From the text: as §4, §2

[17] = system: Williams 82; assay: as above
From the text: as §4, §2

## CC(C)C1(C)N=C(c2ncccc2C(=O)O)NC1=O (stereo not shown) [Compound 11, 2-[4,5-dihydro-4-methyl-4-(1-methylethyl)-5-oxo-1H-imidazol-2-yl]-3-pyridinecarboxylic acid, 1-methylethanamine salt]
[1]; WM82, 8 g/ha
  mean % injury: 50%
[1]; WM82, 17.5 g/ha
  mean % injury: 60%
[1]; WM82, 35 g/ha
  mean % injury: 75%
[2]
  percent soybean injury at 16 g/ha: 41%
  percent soybean injury at 64 g/ha: 74%
[3]
  % crop injury at 16 g/ha: 39%
  % crop injury at 64 g/ha: 73%
[4]
  mean % injury to soybean at 16 g/ha: 45%
  mean % injury to soybean at 64 g/ha: 68%
[5]
  percent soybean crop injury at 16 g/ha: 41%
  percent soybean crop injury at 64 g/ha: 60%
[6]
  soybean crop injury (%) at 16 g/ha: 39%
  soybean crop injury (%) at 64 g/ha: 61%
[7]
  soybean crop injury at 16 g/ha: 49%
  soybean crop injury at 64 g/ha: 75%
[8]; W4-4, 8 g/ha
  mean % injury: 0%
[8]; W4-4, 17.5 g/ha
  mean % injury: 5%
[8]; W4-4, 35 g/ha
  mean % injury: 25%
[9]; W20, 64 g/ha postemergence
  mean % injury: 48%
[9]; W20, 125 g/ha postemergence
  mean % injury: 80%
[10]; W4-4, 64 g/ha postemergence
  mean % injury: 38%
[10]; W4-4, 125 g/ha postemergence
  mean % injury: 53%
[11]; WM82, 64 g/ha postemergence
  mean % injury: 73%
[11]; WM82, 125 g/ha postemergence
  mean % injury: 83%
[12]
  percent crop injury at 16 g/ha: 44%
  percent crop injury at 64 g/ha: 61%
[13]; W20, 8 g/ha
  mean % injury: 20%
[13]; W20, 17.5 g/ha
  mean % injury: 30%
[13]; W20, 35 g/ha
  mean % injury: 60%

## CCS(=O)(=O)c1cccnc1S(=O)(=O)NC(=O)Nc1nc(OC)cc(OC)n1 [Compound 7, N-[[(4,6-dimethoxy-2-pyrimidinyl)amino]carbonyl]-3-(ethylsulfonyl)-2-pyridinesulfonamide]
[14]; W19, 8 g/ha postemergence
  mean % injury: 65%
[14]; W19, 32 g/ha postemergence
  mean % injury: 80%
[15]; W20, 8 g/ha postemergence
  mean % injury: 65%
[15]; W20, 32 g/ha postemergence
  mean % injury: 84%
[16]; 8 g/ha postemergence
  mean % injury: 93%
[16]; 32 g/ha postemergence
  mean % injury: 93%
[17]; WM 82, 8 g/ha postemergence
  mean % injury: 95%
[17]; WM 82, 32 g/ha postemergence
  mean % injury: 93%
[2]; W23, 1 g/ha postemergence
  percent soybean injury at 1 g/ha: 31%
[2]; W23, 4 g/ha postemergence
  percent soybean injury at 4 g/ha: 60%
[3]; W4, 1 g/ha postemergence
  % crop injury at 1 g/ha: 21%
[3]; W4, 4 g/ha postemergence
  % crop injury at 4 g/ha: 69%
[4]; W28, 1 g/ha postemergence
  mean % injury to soybean at 1 g/ha: 20%
[4]; W28, 4 g/ha postemergence
  mean % injury to soybean at 4 g/ha: 54%
[5]; W19, 1 g/ha postemergence
  percent soybean crop injury at 1 g/ha: 19%
[5]; W19, 4 g/ha postemergence
  percent soybean crop injury at 4 g/ha: 65%
[6]; W17, 1 g/ha postemergence
  soybean crop injury (%) at 1 g/ha: 16%
[6]; W17, 4 g/ha postemergence
  soybean crop injury (%) at 4 g/ha: 55%
[7]; Wm 82, 1 g/ha postemergence
  soybean crop injury at 1 g/ha: 61%
[7]; Wm 82, 4 g/ha postemergence
  soybean crop injury at 4 g/ha: 98%
[9]; W20, 4 g/ha postemergence
  mean % injury: 28%
[9]; W20, 16 g/ha postemergence
  mean % injury: 43%
[9]; W20, 32 g/ha postemergence
  mean % injury: 83%
[10]; W4-4, 4 g/ha postemergence
  mean % injury: 10%
[10]; W4-4, 16 g/ha postemergence
  mean % injury: 30%
[10]; W4-4, 32 g/ha postemergence
  mean % injury: 43%
[11]; WM82, 4 g/ha postemergence
  mean % injury: 83%
[11]; WM82, 16 g/ha postemergence
  mean % injury: 93%
[11]; WM82, 32 g/ha postemergence
  mean % injury: 90%
[12]; W20, 1 g/ha postemergence
  percent crop injury at 1 g/ha: 28%
[12]; W20, 4 g/ha postemergence
  percent crop injury at 4 g/ha: 66%

## COC(=O)c1sccc1S(=O)(=O)NC(=O)Nc1nc(C)nc(OC)n1 [Compound 2, Methyl 3-[[[[(4-methoxy-6-methyl-1,3,5-triazine-2-yl)amino]carbonyl]amino]sulfonyl]-2-thiophenecarboxylate]
[14]; W19, 8 g/ha postemergence
  mean % injury: 0%
[14]; W19, 32 g/ha postemergence
  mean % injury: 7%
[15]; W20, 8 g/ha postemergence
  mean % injury: 0%
[15]; W20, 32 g/ha postemergence
  mean % injury: 6%
[16]; 8 g/ha postemergence
  mean % injury: 13%
[16]; 32 g/ha postemergence
  mean % injury: 58%
[17]; WM 82, 8 g/ha postemergence
  mean % injury: 13%
[17]; WM 82, 32 g/ha postemergence
  mean % injury: 63%
[2]
  percent soybean injury at 16 g/ha: 0%
  percent soybean injury at 64 g/ha: 8%
[3]
  % crop injury at 16 g/ha: 0%
  % crop injury at 64 g/ha: 5%
[4]
  mean % injury to soybean at 16 g/ha: 0%
  mean % injury to soybean at 64 g/ha: 5%
[5]
  percent soybean crop injury at 16 g/ha: 0%
  percent soybean crop injury at 64 g/ha: 6%
[6]
  soybean crop injury (%) at 16 g/ha: 0%
  soybean crop injury (%) at 64 g/ha: 3%
[7]
  soybean crop injury at 16 g/ha: 70%
  soybean crop injury at 64 g/ha: 91%
[12]
  percent crop injury at 16 g/ha: 5%
  percent crop injury at 64 g/ha: 5%
